Reference: patent US20220380347A1, “INHIBITORS OF CYSTEINE PROTEASES AND METHODS OF USE THEREOF” (Pardes Biosciences, Inc., priority 2020, published 2022)
Where two headings read alike, the source gives them in different places.

Legend:
[1] = tested on: HCov OC43; assay: HCoV OC43 cytopathic effect (CPE) assay, CellTiter Glo; assay type: cell-based, human coronavirus (HCov) OC43
[2] = target: COVID-19 (nCoV-2019, SARS-CoV2) Mpro (Severe acute respiratory syndrome coronavirus 2, UniProt P0DTD1); assay: COVID-19 (nCoV-2019, SARS-CoV2) Mpro enzymatic assay; assay type: biochemical; settings: 25 nM Mpro, 25 μM substrate; read-out: COVID-19 Mpro IC50
[3] = target: 229E Mpro (Human coronavirus 229E, UniProt P0C6X1); assay: 229E Mpro enzymatic assay (standard methods, SARS-CoV2 Mpro assay given as exemplary); assay type: biochemical, human coronavirus (HCov) 229E
229E Mpro, sequence (P0C6X1 2966-3267): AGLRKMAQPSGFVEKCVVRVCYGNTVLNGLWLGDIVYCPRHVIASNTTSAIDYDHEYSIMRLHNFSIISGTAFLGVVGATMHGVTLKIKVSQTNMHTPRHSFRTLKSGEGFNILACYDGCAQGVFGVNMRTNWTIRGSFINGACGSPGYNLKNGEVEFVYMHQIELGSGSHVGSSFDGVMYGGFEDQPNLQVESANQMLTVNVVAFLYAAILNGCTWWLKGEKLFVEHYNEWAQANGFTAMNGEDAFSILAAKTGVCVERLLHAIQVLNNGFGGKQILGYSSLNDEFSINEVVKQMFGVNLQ
Summary of the method: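 IC50 for 229E Mpro by standard methods; exemplary SARS-CoV-2 protocol used C-His6-tagged Mpro from E. coli, 25 nM enzyme, 25 μM substrate (Km 13.5 μM), in Tris-HCl pH 7.3, NaCl, EDTA, TCEP, 0.1% BSA. Inhibition normalised to no-compound and full-effect controls; four-parameter fit.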

[4] = tested on: HCoV 229E; assay: HCoV 229E cytopathic effect (CPE) assay, CellTiter Glo; assay type: cell-based, human coronavirus (HCov) 229E; settings: protection of virus-induced CPE
Description: Example 238: Evaluation of antiviral activity of compounds against human coronavirus (HCov) 229E and OC43 in the cytopathic effect (CPE) assays
Compounds were assayed using standard methods against multiple coronaviral strains, including HCoV 229E and OC43 strains. The antiviral activity of compounds was calculated based on the protection of the virus-induced CPE at each concentration normalized by the virus control.
Cytopathic effect (CPE) was measured by CellTiter Glo following the manufacturer's manual. The antiviral activity of compounds was calculated based on the protection of the virus-induced CPE at each concentration normalized by the virus control.
Cell viability was measured with CellTiter Glo.

[5] = Betacoronavirus 1, OC43, read-out: OC43 IC50 (uM) MEDIAN, median

Compound	IC50 [2]	EC50 ([3]; 229E Mpro EC50)	EC50 ([4]; unidentified human coronavirus)	further results
CN1CCN(C(=O)C(c2cccnc2)N(C(=O)[C@H]2CCCN2C#N)c2ccc(C(C)(C)C)cc2)CC1 (mixture of isomers) [Compound 967, (2R)—N-(4-(tert-butyl)phenyl)-1-cyano-N-(2-(4-methylpiperazin-1-yl)-2-oxo-1-(pyridin-3-yl)ethyl)pyrrolidine-2-carboxamide]	2000 to 10000 nM	< 2000 nM	2000 to 10000 nM	IC50 [1, 5]: 2 to 10 µM
CC(C)(C)c1ccc(N(C(=O)[C@H]2C[C@@H](Oc3ccccc3)CN2C#N)C(C(=O)NC2CCCCC2)c2cccnc2)cc1 (single isomer, unassigned) [307 Isomer 1]	< 2000 nM	< 2000 nM	< 2000 nM	IC50 [1, 5]: < 2 µM
CC(C)(C)c1ccc(N(C(=O)[C@H]2C[C@@H](O)CN2C#N)C(C(=O)NCCN2CCOCC2)c2cccnc2)cc1 (single isomer, unassigned) [587 Isomer 1]	< 2000 nM	< 2000 nM	< 2000 nM	IC50 [1, 5]: < 2 µM
CC(C)(C)c1ccc(N(C(=O)[C@H]2C[C@@H](O)CN2C#N)C(C(=O)NCCN2CCOCC2)c2cccnc2)cc1 (single isomer, unassigned) [587 Isomer 2]	2000 to 10000 nM			IC50 ([1]; read-out: OC43 IC50 (uM) MEDIAN, median): 2 to 10 µM; EC50 ([3]; read-out: 229E Mpro EC50): < 2000 nM; EC50 [4]: 2000 to 10000 nM
N#CN1C[C@H](O)C[C@@H]1C(=O)N(c1ccc(C2(C(F)(F)F)CC2)cc1)C(C(=O)NC1CCC(F)(F)CC1)c1cncc(F)c1 (single isomer, unassigned) [815 Isomer 1]			< 2000 nM	
N#CN1C[C@H](O)C[C@@H]1C(=O)N(c1ccc(C2(C(F)(F)F)CC2)cc1)C(C(=O)NC1CCC(F)(F)CC1)c1cncc(F)c1 (single isomer, unassigned) [815 Isomer 2]				EC50 [4]: < 2000 nM
CC(C)(C)c1ccc(N(C(=O)[C@H]2COCCN2C#N)C(C(=O)NC2CCCCC2)c2cccnc2)cc1 (single isomer, unassigned) [Compound 202 Isomer 1]	< 2000 nM	< 2000 nM	< 2000 nM	
CC(C)(C)c1ccc(N(C(=O)[C@@]2(C)CCCN2C#N)C(C(=O)NC2CCCCC2)c2cccnc2)cc1 (single isomer, unassigned) [Compound 238 Isomer 1]			2000 to 10000 nM	
CC(C)(C)c1ccc(N(C(=O)[C@@]2(C)CCCN2C#N)C(C(=O)NC2CCCCC2)c2cccnc2)cc1 (single isomer, unassigned) [Compound 238 Isomer 2]				EC50 [4]: < 2000 nM
C[C@H]1CC[C@H](C(=O)N(c2ccc(C(C)(C)C)cc2)C(C(=O)NC2CCCCC2)c2cccnc2)N1C#N (single isomer, unassigned) [Compound 247 Isomer 1]	2000 to 10000 nM	< 2000 nM	< 2000 nM	
CC(C)(C)c1ccc(N(C(=O)[C@H]2C[C@@H](O)CN2C#N)C(C(=O)NC2CCCCC2)c2cccnc2)cc1 (single isomer, unassigned) [Compound 254 Isomer 1]	2000 to 10000 nM			EC50 ([3]; read-out: 229E Mpro EC50): < 2000 nM; EC50 [4]: 2000 to 10000 nM
CC(C)(C)c1ccc(N(C(=O)[C@H]2C[C@@H](O)CN2C#N)C(C(=O)NC2CCCCC2)c2cccnc2)cc1 (single isomer, unassigned) [Compound 254]	< 2000 nM	< 2000 nM	< 2000 nM	
CC(C)(C)c1ccc(N(C(=O)[C@H]2C[C@H](O)CN2C#N)C(C(=O)NC2CCCCC2)c2cccnc2)cc1 (single isomer, unassigned) [Compound 255 Isomer 1]	2000 to 10000 nM	< 2000 nM		EC50 ([4]; listed as 255 Isomer 1): 10000 to 30000 nM
CC(C)(C)c1ccc(N(C(=O)[C@H]2C[C@H](O)CN2C#N)C(C(=O)NC2CCCCC2)c2cccnc2)cc1 (single isomer, unassigned) [Compound 255 Isomer 2]	< 2000 nM			EC50 ([3]; read-out: 229E Mpro EC50): < 2000 nM; EC50 ([4]; listed as 255 Isomer 2): < 2000 nM
CC(C)(C)c1ccc(N(C(=O)[C@H]2Cc3ccccc3CN2C#N)C(C(=O)NC2CCCCC2)c2cccnc2)cc1 (single isomer, unassigned) [Compound 374]			< 2000 nM	
CC(C)(C)c1ccc(N(C(=O)[C@H]2CCCN2C#N)C(C(=O)NC2CCCCC2)c2cccnc2)cc1 (single isomer, unassigned) [Compound 1248 Isomer 1]			< 2000 nM	
CC(C)(C)c1ccc(N(C(=O)[C@H]2CCCN2C#N)C(C(=O)NC2CCCCC2)c2cccnc2)cc1 (single isomer, unassigned) [Compound 1248 Isomer 2]				EC50 [4]: 2000 to 10000 nM

Compound	IC50 [2]	EC50 ([3]; 229E Mpro EC50)	EC50 ([4]; unidentified human coronavirus)	further results
CC1(C(=O)N(c2ccc(C(C)(C)C)cc2)C(C(=O)NC2CCCCC2)c2cccnc2)CN(C#N)C1 (stereo not shown) [Compound 128, N-(4-tert-butylphenyl)-1-cyano-N-[2-(cyclohexylamino)-2-oxo-1-(3-pyridyl)ethyl]-3-methyl-azetidine-3-carboxamide]	10000 to 30000 nM	2000 to 10000 nM	2000 to 10000 nM	
CC(C)(C)c1ccc(N(C(=O)[C@H]2CCC(C)(C)N2C#N)C(C(=O)NC2CCCCC2)c2cccnc2)cc1 (stereo partly drawn) [Compound 262, (2R)—N-(4-tert-butylphenyl)-1-cyano-N-[2-(cyclohexylamino)-2-oxo-1-(3-pyridyl)ethyl]-5,5-dimethyl-pyrrolidine-2-carboxamide]			< 2000 nM	
CC(C)(C)c1ccc(N(C(=O)C2c3ccccc3CN2C#N)C(C(=O)NC2CCCCC2)c2cccnc2)cc1 (stereo not shown) [Compound 371]			< 2000 nM	
CC(C)(C)c1ccc(N(C(=O)[C@H]2CCCN2C#N)C(C(=O)NCCN2CCOCC2)c2cccnc2)cc1 (stereo partly drawn) [Compound 391, (2R)—N-(4-(tert-butyl)phenyl)-1-cyano-N-(2-((2-morpholinoethyl)amino)-2-oxo-1-(pyridin-3-yl)ethyl)pyrrolidine-2-carboxamide]			2000 to 10000 nM	
COc1ccc(NC(=O)C(c2cccnc2)N(C(=O)[C@H]2CCCN2C#N)c2ccc(C(C)(C)C)cc2)cn1 (stereo partly drawn) [Compound 407, (2R)—N-(4-(tert-butyl)phenyl)-1-cyano-N-(2-((6-methoxypyridin-3-yl)amino)-2-oxo-1-(pyridin-3-yl)ethyl)pyrrolidine-2-carboxamide]			< 2000 nM	
CC(C)(C)c1ccc(N(C(=O)[C@H]2CCCN2C#N)C(C(=O)NC2CCCCC2)c2cncc(F)c2)cc1 (stereo partly drawn) [Compound 475, (2R)—N-(4-(tert-butyl)phenyl)-1-cyano-N-(2-(cyclohexylamino)-1-(5-fluoropyridin-3-yl)-2-oxoethyl)pyrrolidine-2-carboxamide]			< 2000 nM	
CC(C)(C)c1ccc(N(C(=O)C2CCC(F)(F)CN2C#N)C(C(=O)NC2CCCCC2)c2cccnc2)cc1 (stereo not shown) [Compound 885]			2000 to 10000 nM	
CC(C)(C)c1ccc(N(C(=O)[C@H]2[C@H](F)CCN2C#N)C(C(=O)NC2CCCCC2)c2cccnc2)cc1 (stereo partly drawn) [Compound 910, (2S,3R)—N-(4-tert-butylphenyl)-1-cyano-N-[2-(cyclohexylamino)-2-oxo-1-(3-pyridyl)ethyl]-3-fluoro-pyrrolidine-2-carboxamide]			< 2000 nM	
CC(C)(C)c1ccc(N(C(=O)[C@H]2CCCN2C#N)C(C(=O)N2CCOCC2)c2cccnc2)cc1 (stereo partly shown) [Compound 959]			2000 to 10000 nM	
O=C(NC1CCCCC1)C(c1cnnc2ccccc12)N(C(=O)[C@H]1C[C@@H](O)CN1)c1ccc(S(F)(F)(F)(F)F)cc1 (stereo partly shown) [Compound 988]			< 2000 nM	
COc1cncc(C(C(=O)NC2CCCCC2)N(C(=O)[C@H]2C[C@@H](O)CN2C#N)c2ccc(C(C)(C)C)cc2)c1 (stereo partly shown) [Compound 992]			2000 to 10000 nM	
CO[C@@H]1C[C@H](C(=O)N(c2ccc(S(F)(F)(F)(F)F)cc2)C(C(=O)N2CCNCC2)c2cccnc2)N(C#N)C1 (stereo partly shown) [Compound 1149]			< 2000 nM	
C[C@@]1(O)C[C@H](C(=O)N(c2ccc(S(F)(F)(F)(F)F)cc2)C(C(=O)NC2CCOCC2)c2cnccn2)N(C#N)C1 (stereo partly drawn) [Compound 1322, (2R,4R)-1-cyano-4-hydroxy-4-methyl-N-[2-oxo-1-pyrazin-2-yl-2-(tetrahydropyran-4-ylamino)ethyl]-N-[4-(pentafluoro-λ6-sulfanyl)phenyl]pyrrolidine-2-carboxamide]	< 2000 nM	< 2000 nM		IC50 [1, 5]: < 2 µM
CC(C)(C)c1ccc(N(C(=O)[C@H]2C[C@@](C)(O)CN2C#N)C(C(=O)NC2CCC(F)(F)CC2)c2cnccn2)cc1 (stereo partly drawn) [Compound 1326, (2R,4R)—N-(4-(tert-butyl)phenyl)-1-cyano-N-(2-((4,4-difluorocyclohexyl)amino)-2-oxo-1-(pyrazin-2-yl)ethyl)-4-hydroxy-4-methylpyrrolidine-2-carboxamide]	< 2000 nM	< 2000 nM		IC50 [1, 5]: < 2 µM
C[C@H](NC(=O)C(c1cnccc1C(F)(F)F)N(C(=O)[C@H]1C[C@@](C)(O)CN1C#N)c1ccc(S(F)(F)(F)(F)F)cc1)c1ccccc1 (stereo partly drawn) [Compound 1347, (2R,4R)-1-cyano-4-hydroxy-4-methyl-N-[2-oxo-2-[[(1S)-1-phenylethyl]amino]-1-[4-(trifluoromethyl)-3-pyridyl]ethyl]-N-[4-(pentafluoro-λ6-sulfanyl)phenyl]pyrrolidine-2-carboxamide]	< 2000 nM	< 2000 nM		IC50 [1, 5]: < 2 µM
C[C@@H]1OCCN(C#N)[C@H]1C(=O)N(c1ccc(S(F)(F)(F)(F)F)cc1)C(C(=O)NC1CCOCC1)c1cncc(F)c1 (stereo partly shown) [Compound 1419]	< 2000 nM	< 2000 nM		IC50 [1, 5]: 2 to 10 µM
